Each structure is given as a SMILES string. pKi: −log10 of the molar value. Counter-ions that a name gives are not always drawn.

One assay deals with "behavioral despair" behavior. As to the kind of experiment: "behavioral despair" behavior according to Porsolt et al. The note with it: according to Porsolt et al. 1977. It counts as in vivo. The text has this:
Furthermore, the antidepressive action properties of the compounds were investigated. For this, the influence of the compounds on the so-called "behavioral despair" behavior was investigated according to Porsolt et al. Arch. Int. Pharmacodyn. Ther. 229, 327 (1977).
For the molecule `COc1ccc2[nH]cc3c2c1CC(NCCCCN(C)S(=O)(=O)c1ccc(F)cc1)C3` (stereo not drawn) [Example 4, 6-Methoxy-4-[4-(N-4-fluorobenzenesulfonyl-N-methyl)amidobutyl]-amino-1,3,4,5-tetrahydrobenz[c,d]indole hydrochloride], the “influence on "behavioral despair" behavior (antidepressive action)” value (from here on “influence”) is “positive action”. For `COc1ccc2[nH]cc3c2c1CC(NCCCCN1Cc2ccccc2S1(=O)=O)C3` (stereo not drawn) [Example 3, 6-Methoxy-4-[4-(N-2,3-dihydro-1,2-benzisothiazol-1,1-dioxid-yl)]-butylamino-1,3,4,5-tetrahydrobenz[c,d]indole hydrochloride], the “influence” value is reported as “positive action”. On the same count and under the same terms, under `CCCNC1Cc2c[nH]c3ccc(OC)c(c23)C1` (stereo not drawn) [Example 13, 6-Methoxy-4-propylamino-1,3,4,5-tetrahydrobenz[c,d]indole] stands “positive action”. With `CCCCS(=O)(=O)NCCN(CCC)C1Cc2c[nH]c3ccc(OC)c(c23)C1` (stereo not drawn) [Example 7], the “influence” value is “positive action”.

A further assay concerns the target 5-HT1 receptor. As to the kind of experiment: Affinity for the 5-HT1 receptor (receptor binding, 3H-serotonin radioligand, calf hippocampus membranes). As to conditions: calf hippocampus membrane preparations; 3H-Serotonin as radioligand. The text has this: Affinity for the 5-HT1 receptor
The high affinity of the compounds according to the invention for 5-hydroxytryptamine receptors of the subtype 1 is represented by way of example in Table 1. The values indicated are data which have been determined from receptor binding studies with calf hippocampus membrane preparations. 3H-Serotonin was used for this as a radioactively labelled ligand.
For the molecule `CCCN(CCNC(=O)OCC)C1Cc2c[nH]c3ccc(OC)c(c23)C1` (stereo not drawn) [Example 5, 6-Methoxy-4-[N-propyl-N-(ethyloxycarbonylaminoethyl)]amino-1,3,4,5-tetrahydrobenz[c,d]indole], the pKi – broadly, the Ki on a negative log10 scale, so that one unit is a factor of ten – was 9.00. In the case of `COc1ccc2[nH]cc3c2c1CC(NCCCNS(=O)(=O)c1ccc(F)cc1)C3` (stereo not drawn) [Example 18, 6-Methoxy-4-(4-fluorophenylsulphonylamidopropyl)-amino-1,3,4,5-tetrahydrobenz[c,d]indole hydrochloride], the pKi was 9.15. The pKi values of the last two molecules are within 0.2 log units of each other. On to `CCCN(CCNS(C)(=O)=O)C1Cc2c[nH]c3ccc(OC)c(c23)C1` (stereo not drawn) [Example 6, 6-Methoxy-4-[N-propyl-N-(methylsulphonylamidoethyl)]-amino-1,3,4,5-tetrahydrobenz[c,d]indole], for which the pKi is 8.22. Compared with the last molecule, the pKi is 0.93 log units lower. Still for that read-out and setting: under `CCCN(CCS(=O)(=O)N(C)C)C1Cc2c[nH]c3ccc(OC)c(c23)C1` (stereo not drawn) [Example 15, 6-Methoxy-4-[N-propyl-N-(dimethylsulphamoylethyl)]-amino-1,3,4,5-tetrahydrobenz[c,d]indole] stands 8.10. Turning to `O=C1c2ccccc2S(=O)(=O)N1CCCCNC1Cc2cccc3[nH]cc(c23)C1` (stereo not drawn) [Example 2, 4-[4-(N-1,2-Benzisothiazol-3(2H)-one-1,1-dioxide-yl)]-butylamino-1,3,4,5-tetrahydrobenz[c,d]indole], the negative logarithm of the Ki (pKi) was 8.70. Compared with the last molecule, the pKi is 0.60 log units higher. Same read-out and setting: under `CCCN(CCNS(=O)(=O)c1ccc(C)cc1)C1Cc2c[nH]c3ccc(OC)c(c23)C1` (stereo not drawn) [Example 8, 6-Methoxy-4-[N-propyl-N-(tosylamidoethyl)]-amino-1,3,4,5-tetrahydrobenz[c,d]indole hydrochloride] stands 9.00; under `CCCN(CCNS(=O)(=O)c1ccc2ccccc2c1)C1Cc2c[nH]c3ccc(OC)c(c23)C1` (stereo not drawn) [Example 9, 6-Methoxy-4-[N-propyl-N-(naphthylsulphonylamidoethyl)]-amino-1,3,4,5-tetrahydrobenz[c,d]indole hydrochloride], 8.70. With `COc1ccc2[nH]cc3c2c1CC(NCCCCN1C(=O)c2ccccc2S1(=O)=O)C3` (stereo not drawn) [Example 1, 6-Methoxy-4-[4-(N-1,2-benzisothiazol-3(2H)-one-1,1-dioxide-yl)]-butylamino-1,3,4,5-tetrahydrobenz[c,d]indole hydrochloride], the negative logarithm of the Ki (pKi) is 8.70.
